The subject of data set [1] is SH-SY5Y. Nature of the data set: Induction of neurite outgrowth in human SH-SY5Y cells assessed as increase in neurite length of more than 50 micrometer by measuring cell differentiation at 1 uM incubated for 6 days by Giemsa staining based phase contrast microscopic analysis relative to control. Type of data set: functional.
For data set [2], the target named is Neutral cholesterol ester hydrolase 1 (Homo sapiens) (UniProt Q6PIU2). Particulars: A549, Lysate; call rule not given here.
In data set [3] the target is Ubiquitin carboxyl-terminal hydrolase 10 (Homo sapiens) (UniProt Q14694). As to conditions: A549, Lysate.
Description: Binding affinity to USP10 in human A549 cells lysates grown on SILAC media at 10 uM incubated for 1 hr by LC-MS/MS analysis relative to untreated control
Data set [4] deals with Mitochondrial carrier homolog 2 (Homo sapiens) (UniProt Q9Y6C9). Particulars: A549, Lysate.
Mitochondrial carrier homolog 2 (Homo sapiens), sequence (Q9Y6C9 whole entry): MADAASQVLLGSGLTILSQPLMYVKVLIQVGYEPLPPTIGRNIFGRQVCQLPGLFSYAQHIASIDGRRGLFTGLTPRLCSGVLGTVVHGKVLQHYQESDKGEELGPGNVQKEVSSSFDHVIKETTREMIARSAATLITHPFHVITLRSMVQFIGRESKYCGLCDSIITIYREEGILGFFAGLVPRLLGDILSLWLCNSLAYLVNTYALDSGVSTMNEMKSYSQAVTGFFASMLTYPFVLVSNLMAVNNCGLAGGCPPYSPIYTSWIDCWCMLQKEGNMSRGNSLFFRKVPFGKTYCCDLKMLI
Description: Binding affinity to MTCH2 in human A549 cells lysates grown on SILAC media at 10 uM incubated for 1 hr by LC-MS/MS analysis relative to untreated control
The target in data set [5] is Glucocorticoid receptor (Homo sapiens) (UniProt P04150). As to conditions: A549, Lysate.
Description: Binding affinity to NR3C1 in human A549 cells lysates grown on SILAC media at 10 uM incubated for 1 hr by LC-MS/MS analysis relative to untreated control
Data set [6] deals with von Willebrand factor (Homo sapiens) (UniProt P04275). As to conditions: A549, Lysate.
Description: Binding affinity to VWF in human A549 cells lysates grown on SILAC media at 10 uM incubated for 1 hr by LC-MS/MS analysis relative to untreated control
Data set [7] deals with Non-selective voltage-gated ion channel VDAC2 (Homo sapiens) (UniProt P45880). As to conditions: A549, Lysate.
Non-selective voltage-gated ion channel VDAC2 (Homo sapiens), sequence (P45880 whole entry): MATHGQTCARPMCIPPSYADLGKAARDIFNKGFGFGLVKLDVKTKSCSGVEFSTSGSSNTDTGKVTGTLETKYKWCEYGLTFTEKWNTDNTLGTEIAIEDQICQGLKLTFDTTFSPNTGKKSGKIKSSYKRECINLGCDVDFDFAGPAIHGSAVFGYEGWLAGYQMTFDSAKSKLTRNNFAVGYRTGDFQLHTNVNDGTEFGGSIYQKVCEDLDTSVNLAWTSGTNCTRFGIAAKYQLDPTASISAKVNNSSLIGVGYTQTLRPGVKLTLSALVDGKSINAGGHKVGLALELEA
Description: Binding affinity to VDAC2 in human A549 cells lysates grown on SILAC media at 10 uM incubated for 1 hr by LC-MS/MS analysis relative to untreated control
For data set [8], the target named is Minor histocompatibility antigen H13 (Homo sapiens) (UniProt Q8TCT9). As to conditions: A549, Lysate.
Minor histocompatibility antigen H13 (Homo sapiens), sequence (Q8TCT9 whole entry): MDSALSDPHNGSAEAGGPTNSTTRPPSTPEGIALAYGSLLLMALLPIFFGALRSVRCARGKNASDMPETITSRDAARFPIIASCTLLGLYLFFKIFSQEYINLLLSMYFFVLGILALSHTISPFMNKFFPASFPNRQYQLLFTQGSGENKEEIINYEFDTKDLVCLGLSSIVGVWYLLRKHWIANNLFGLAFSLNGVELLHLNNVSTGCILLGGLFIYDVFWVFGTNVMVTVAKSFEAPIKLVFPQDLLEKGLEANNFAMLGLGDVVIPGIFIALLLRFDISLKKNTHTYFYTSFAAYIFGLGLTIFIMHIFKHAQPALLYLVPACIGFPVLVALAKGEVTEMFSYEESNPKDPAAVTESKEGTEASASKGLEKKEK
Description: Binding affinity to HM13 in human A549 cells lysates grown on SILAC media at 10 uM incubated for 1 hr by LC-MS/MS analysis relative to untreated control
Data set [9] deals with Histidine--tRNA ligase, cytoplasmic (Homo sapiens) (UniProt P12081). Particulars: A549, Lysate.
Description: Binding affinity to HARS in human A549 cells lysates grown on SILAC media at 10 uM incubated for 1 hr by LC-MS/MS analysis relative to untreated control
For data set [10], the target named is Reticulon-4 (Homo sapiens) (UniProt Q9NQC3). As to conditions: A549, Lysate.
Reticulon-4 (Homo sapiens), sequence (Q9NQC3 whole entry): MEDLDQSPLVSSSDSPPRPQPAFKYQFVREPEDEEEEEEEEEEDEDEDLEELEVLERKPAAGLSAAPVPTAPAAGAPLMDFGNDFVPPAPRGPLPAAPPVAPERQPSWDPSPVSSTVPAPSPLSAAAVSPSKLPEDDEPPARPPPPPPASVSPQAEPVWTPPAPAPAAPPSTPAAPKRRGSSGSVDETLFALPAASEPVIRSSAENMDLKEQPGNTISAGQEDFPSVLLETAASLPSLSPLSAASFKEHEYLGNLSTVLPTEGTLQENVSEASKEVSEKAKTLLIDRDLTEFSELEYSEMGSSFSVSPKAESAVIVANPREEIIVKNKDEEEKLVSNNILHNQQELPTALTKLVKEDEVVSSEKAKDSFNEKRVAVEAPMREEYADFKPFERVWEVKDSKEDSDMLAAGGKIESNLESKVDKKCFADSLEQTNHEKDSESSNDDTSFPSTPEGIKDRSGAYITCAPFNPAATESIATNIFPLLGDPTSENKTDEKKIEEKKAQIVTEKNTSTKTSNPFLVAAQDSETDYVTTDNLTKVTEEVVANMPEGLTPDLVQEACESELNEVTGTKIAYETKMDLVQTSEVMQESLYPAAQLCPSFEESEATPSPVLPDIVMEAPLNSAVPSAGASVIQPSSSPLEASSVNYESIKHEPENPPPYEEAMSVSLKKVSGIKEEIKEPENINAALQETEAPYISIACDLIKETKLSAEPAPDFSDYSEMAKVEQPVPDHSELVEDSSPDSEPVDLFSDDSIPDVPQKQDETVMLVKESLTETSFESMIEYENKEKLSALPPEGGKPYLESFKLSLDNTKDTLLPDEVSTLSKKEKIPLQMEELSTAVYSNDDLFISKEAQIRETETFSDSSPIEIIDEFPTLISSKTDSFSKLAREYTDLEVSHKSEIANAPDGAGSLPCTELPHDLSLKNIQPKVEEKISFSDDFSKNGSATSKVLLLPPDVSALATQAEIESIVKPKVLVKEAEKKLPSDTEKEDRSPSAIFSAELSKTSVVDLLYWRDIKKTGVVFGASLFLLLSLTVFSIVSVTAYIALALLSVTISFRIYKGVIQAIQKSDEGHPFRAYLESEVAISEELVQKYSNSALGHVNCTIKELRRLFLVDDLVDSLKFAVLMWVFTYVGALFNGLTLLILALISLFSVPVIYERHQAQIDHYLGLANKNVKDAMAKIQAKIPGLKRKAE
Description: Binding affinity to RTN4 in human A549 cells lysates grown on SILAC media at 10 uM incubated for 1 hr by LC-MS/MS analysis relative to untreated control
The target in data set [11] is Mitochondrial import receptor subunit TOM40 homolog (Homo sapiens) (UniProt O96008). Particulars: A549, Lysate.
Mitochondrial import receptor subunit TOM40 homolog (Homo sapiens), sequence (O96008 whole entry): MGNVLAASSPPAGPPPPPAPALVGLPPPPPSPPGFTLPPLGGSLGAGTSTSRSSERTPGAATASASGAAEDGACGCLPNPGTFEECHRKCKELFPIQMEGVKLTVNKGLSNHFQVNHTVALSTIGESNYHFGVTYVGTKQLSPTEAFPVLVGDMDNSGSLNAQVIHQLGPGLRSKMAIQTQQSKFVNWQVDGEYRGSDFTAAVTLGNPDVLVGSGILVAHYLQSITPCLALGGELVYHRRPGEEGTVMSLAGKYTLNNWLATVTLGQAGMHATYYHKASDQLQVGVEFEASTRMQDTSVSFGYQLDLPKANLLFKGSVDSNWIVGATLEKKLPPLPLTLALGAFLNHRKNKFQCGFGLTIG
Description: Binding affinity to TOMM40 in human A549 cells lysates grown on SILAC media at 10 uM incubated for 1 hr by LC-MS/MS analysis relative to untreated control
Data set [12] addresses Ubiquitin carboxyl-terminal hydrolase 5 (Homo sapiens) (UniProt P45974). As to conditions: A549, Lysate.
Description: Binding affinity to USP5 in human A549 cells lysates grown on SILAC media at 10 uM incubated for 1 hr by LC-MS/MS analysis relative to untreated control
For data set [13], the target named is Prostaglandin E synthase 2 (Homo sapiens) (UniProt Q9H7Z7). Particulars: A549, Lysate.
Prostaglandin E synthase 2 (Homo sapiens), sequence (Q9H7Z7 whole entry): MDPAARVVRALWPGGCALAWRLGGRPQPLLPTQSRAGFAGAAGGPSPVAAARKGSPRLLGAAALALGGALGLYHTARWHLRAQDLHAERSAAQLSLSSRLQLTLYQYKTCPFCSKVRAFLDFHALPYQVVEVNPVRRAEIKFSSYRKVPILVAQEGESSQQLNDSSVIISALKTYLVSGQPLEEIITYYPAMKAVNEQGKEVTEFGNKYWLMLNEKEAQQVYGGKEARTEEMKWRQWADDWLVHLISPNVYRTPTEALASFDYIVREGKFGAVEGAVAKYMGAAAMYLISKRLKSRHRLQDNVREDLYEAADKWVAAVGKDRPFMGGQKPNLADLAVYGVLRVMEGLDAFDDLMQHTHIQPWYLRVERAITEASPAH
Description: Binding affinity to PTGES2 in human A549 cells lysates grown on SILAC media at 10 uM incubated for 1 hr by LC-MS/MS analysis relative to untreated control
For data set [14], the target named is Heme oxygenase 2 (Homo sapiens) (UniProt P30519). Particulars: A549, Lysate.
Description: Binding affinity to HMOX2 in human A549 cells lysates grown on SILAC media at 10 uM incubated for 1 hr by LC-MS/MS analysis relative to untreated control
Data set [15] has as its target Non-selective voltage-gated ion channel VDAC3 (Homo sapiens) (UniProt Q9Y277). As to conditions: A549, Lysate.
Description: Binding affinity to VDAC3 in human A549 cells lysates grown on SILAC media at 10 uM incubated for 1 hr by LC-MS/MS analysis relative to untreated control
Data set [16] deals with Sarcoplasmic/endoplasmic reticulum calcium ATPase 2 (Homo sapiens) (UniProt P16615). Particulars: A549, Lysate.
Sarcoplasmic/endoplasmic reticulum calcium ATPase 2 (Homo sapiens), sequence (P16615 whole entry): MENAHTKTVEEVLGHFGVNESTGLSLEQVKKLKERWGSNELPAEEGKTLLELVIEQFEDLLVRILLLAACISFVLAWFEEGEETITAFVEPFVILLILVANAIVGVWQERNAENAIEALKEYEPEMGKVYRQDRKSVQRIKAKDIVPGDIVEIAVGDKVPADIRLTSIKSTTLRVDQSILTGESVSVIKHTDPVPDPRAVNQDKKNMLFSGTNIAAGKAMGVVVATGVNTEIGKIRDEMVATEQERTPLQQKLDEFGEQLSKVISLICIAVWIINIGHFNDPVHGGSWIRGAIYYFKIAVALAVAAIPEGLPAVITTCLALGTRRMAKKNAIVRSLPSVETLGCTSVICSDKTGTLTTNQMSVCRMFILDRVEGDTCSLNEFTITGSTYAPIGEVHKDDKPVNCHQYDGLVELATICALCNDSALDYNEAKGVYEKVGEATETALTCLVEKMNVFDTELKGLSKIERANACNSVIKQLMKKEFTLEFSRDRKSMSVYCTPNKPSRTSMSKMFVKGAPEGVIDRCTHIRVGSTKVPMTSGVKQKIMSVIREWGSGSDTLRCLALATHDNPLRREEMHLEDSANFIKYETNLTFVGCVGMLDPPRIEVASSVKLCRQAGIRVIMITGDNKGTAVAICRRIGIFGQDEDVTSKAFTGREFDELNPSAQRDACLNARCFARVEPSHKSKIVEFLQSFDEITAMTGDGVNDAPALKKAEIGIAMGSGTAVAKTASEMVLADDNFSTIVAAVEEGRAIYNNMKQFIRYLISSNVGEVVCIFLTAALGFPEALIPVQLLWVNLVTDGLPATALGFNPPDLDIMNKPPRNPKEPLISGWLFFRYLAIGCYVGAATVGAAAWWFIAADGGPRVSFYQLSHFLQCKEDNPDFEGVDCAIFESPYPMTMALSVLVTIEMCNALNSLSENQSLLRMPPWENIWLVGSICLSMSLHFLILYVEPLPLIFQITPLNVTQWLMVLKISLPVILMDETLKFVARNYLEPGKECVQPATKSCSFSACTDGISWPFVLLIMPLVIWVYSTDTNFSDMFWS
Description: Binding affinity to ATP2A2 in human A549 cells lysates grown on SILAC media at 10 uM incubated for 1 hr by LC-MS/MS analysis relative to untreated control
In data set [17] the test system is SH-SY5Y. Briefly: Induction of neurite outgrowth in human SH-SY5Y cells assessed as increase in neurite length of more than 50 micrometer by measuring cell differentiation at 1 uM in presence of mifepristone incubated for 6 days by Giemsa staining based phase contrast microscopic analysis relative to control. Type of data set: functional.
Data set [18] concerns the target T1, 1,25-dihydroxyvitamin D(3) 24-hydroxylase, mitochondrial (Homo sapiens, UniProt Q07973).
T1 sequence (Q07973 whole entry): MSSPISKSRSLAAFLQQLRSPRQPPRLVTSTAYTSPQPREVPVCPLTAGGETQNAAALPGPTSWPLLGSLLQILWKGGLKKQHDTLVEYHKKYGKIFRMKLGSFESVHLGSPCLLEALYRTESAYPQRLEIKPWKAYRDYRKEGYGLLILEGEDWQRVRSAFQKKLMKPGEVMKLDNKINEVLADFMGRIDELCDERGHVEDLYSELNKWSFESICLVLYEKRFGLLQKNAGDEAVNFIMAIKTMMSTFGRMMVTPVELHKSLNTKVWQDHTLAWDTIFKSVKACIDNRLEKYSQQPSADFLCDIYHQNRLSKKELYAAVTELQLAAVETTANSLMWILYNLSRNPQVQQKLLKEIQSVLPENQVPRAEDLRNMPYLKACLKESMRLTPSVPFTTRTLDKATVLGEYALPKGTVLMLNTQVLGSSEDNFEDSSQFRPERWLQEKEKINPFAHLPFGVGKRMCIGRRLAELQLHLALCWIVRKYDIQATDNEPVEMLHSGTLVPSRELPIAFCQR
Briefly: Binding affinity to CYP24A1 in human A549 cells lysates grown on SILAC media at 10 uM incubated for 1 hr by LC-MS/MS analysis. It counts as subcellular, Lysate. As to conditions: a549, 1 h.

In data set [19] the target is Carnitine O-palmitoyltransferase 1, liver isoform (Homo sapiens) (UniProt P50416). Particulars: A549, Lysate.
Description: Binding affinity to CPT1A in human A549 cells lysates grown on SILAC media at 10 uM incubated for 1 hr by LC-MS/MS analysis relative to untreated control
Data set [20] has as its target Antigen peptide transporter 1 (Homo sapiens) (UniProt Q03518). As to conditions: A549, Lysate.
Description: Binding affinity to TAP1 in human A549 cells lysates grown on SILAC media at 10 uM incubated for 1 hr by LC-MS/MS analysis relative to untreated control
For data set [21], the target named is Cytoskeleton-associated protein 4 (Homo sapiens) (UniProt Q07065). Particulars: A549, Lysate.
Cytoskeleton-associated protein 4 (Homo sapiens), sequence (Q07065 whole entry): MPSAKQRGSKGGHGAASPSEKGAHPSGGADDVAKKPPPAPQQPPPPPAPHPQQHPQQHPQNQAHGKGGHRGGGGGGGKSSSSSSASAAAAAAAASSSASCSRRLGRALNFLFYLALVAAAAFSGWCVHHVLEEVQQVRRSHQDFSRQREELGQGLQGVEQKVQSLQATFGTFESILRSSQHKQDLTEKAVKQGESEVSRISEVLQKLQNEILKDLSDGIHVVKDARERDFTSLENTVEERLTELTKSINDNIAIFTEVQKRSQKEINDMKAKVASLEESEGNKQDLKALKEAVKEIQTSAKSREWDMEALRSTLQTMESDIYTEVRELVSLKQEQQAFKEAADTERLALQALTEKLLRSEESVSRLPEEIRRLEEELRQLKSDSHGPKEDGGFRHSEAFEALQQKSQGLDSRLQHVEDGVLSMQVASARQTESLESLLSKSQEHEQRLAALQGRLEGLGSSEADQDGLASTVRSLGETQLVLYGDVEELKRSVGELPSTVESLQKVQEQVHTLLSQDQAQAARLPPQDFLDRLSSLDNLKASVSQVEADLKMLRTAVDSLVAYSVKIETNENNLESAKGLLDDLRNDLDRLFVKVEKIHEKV
Description: Binding affinity to CKAP4 in human A549 cells lysates grown on SILAC media at 10 uM incubated for 1 hr by LC-MS/MS analysis relative to untreated control
Data set [22] concerns the target NPC intracellular cholesterol transporter 1 (Homo sapiens) (UniProt O15118). Particulars: A549, Lysate.
Description: Binding affinity to NPC1 in human A549 cells lysates grown on SILAC media at 10 uM incubated for 1 hr by LC-MS/MS analysis relative to untreated control
In data set [23] the target is Trifunctional enzyme subunit beta, mitochondrial (Homo sapiens) (UniProt P55084). Particulars: A549, Lysate.
Description: Binding affinity to HADHB in human A549 cells lysates grown on SILAC media at 10 uM incubated for 1 hr by LC-MS/MS analysis relative to untreated control
Data set [24] deals with Glutathione S-transferase omega-1 (Homo sapiens) (UniProt P78417). As to conditions: A549, Lysate.
Description: Binding affinity to GSTO1 in human A549 cells lysates grown on SILAC media at 10 uM incubated for 1 hr by LC-MS/MS analysis relative to untreated control
In data set [25] the target is Mitochondrial antiviral-signaling protein (Homo sapiens) (UniProt Q7Z434). As to conditions: A549, Lysate.
Description: Binding affinity to MAVS in human A549 cells lysates grown on SILAC media at 10 uM incubated for 1 hr by LC-MS/MS analysis relative to untreated control
The target in data set [26] is T1, 1,25-dihydroxyvitamin D(3) 24-hydroxylase, mitochondrial. Nature of the data set: Binding affinity to CYP24A1 in human A549 cells lysates grown on SILAC media at 10 uM incubated for 1 hr by LC-MS/MS analysis relative to untreated control. Type of data set: subcellular, Lysate. Particulars: a549, 1 h.
Data set [27] has as its system SH-SY5Y. Nature of the data set: Induction of neurite outgrowth in human SH-SY5Y cells assessed as increase in neurite length of more than 50 micrometer by measuring cell differentiation at 1 uM in presence of dexamethasone incubated for 6 days by Giemsa staining based phase contrast microscopic analysis relative to control. Type of data set: functional.
The target of data set [28] is G patch domain-containing protein 8 (Homo sapiens) (UniProt Q9UKJ3). Particulars: A549, Lysate.
Description: Binding affinity to GPATCH8 in human A549 cells lysates grown on SILAC media at 10 uM incubated for 1 hr by LC-MS/MS analysis relative to untreated control
Data set [29] addresses Cytochrome b5 type B (Homo sapiens) (UniProt O43169). As to conditions: A549, Lysate.
Description: Binding affinity to CYB5B in human A549 cells lysates grown on SILAC media at 10 uM incubated for 1 hr by LC-MS/MS analysis relative to untreated control
Data set [30] addresses SAFB-like transcription modulator (Homo sapiens) (UniProt Q9NWH9). Particulars: A549, Lysate.
The target in data set [31] is Perilipin-3 (Homo sapiens) (UniProt O60664). Particulars: A549, Lysate.
Description: Binding affinity to PLIN3 in human A549 cells lysates grown on SILAC media at 10 uM incubated for 1 hr by LC-MS/MS analysis relative to untreated control
The target in data set [32] is Glutathione S-transferase 3, mitochondrial (Homo sapiens) (UniProt O14880). Particulars: A549, Lysate.
Description: Binding affinity to MGST3 in human A549 cells lysates grown on SILAC media at 10 uM incubated for 1 hr by LC-MS/MS analysis relative to untreated control
For data set [33], the target named is Heat shock protein beta-1 (Homo sapiens) (UniProt P04792). As to conditions: A549, Lysate.
Description: Binding affinity to HSPB1 in human A549 cells lysates grown on SILAC media at 10 uM incubated for 1 hr by LC-MS/MS analysis relative to untreated control
Data set [34] deals with WD repeat and HMG-box DNA-binding protein 1 (Homo sapiens) (UniProt O75717). As to conditions: A549, Lysate.
Description: Binding affinity to WDHD1 in human A549 cells lysates grown on SILAC media at 10 uM incubated for 1 hr by LC-MS/MS analysis relative to untreated control
For data set [35], the target named is Isocitrate dehydrogenase [NADP] cytoplasmic (Homo sapiens) (UniProt O75874). Particulars: A549, Lysate.
Description: Binding affinity to IDH1 in human A549 cells lysates grown on SILAC media at 10 uM incubated for 1 hr by LC-MS/MS analysis relative to untreated control
For data set [36], the target named is Transcription intermediary factor 1-beta (Homo sapiens) (UniProt Q13263). Particulars: A549, Lysate.
Description: Binding affinity to TRIM28 in human A549 cells lysates grown on SILAC media at 10 uM incubated for 1 hr by LC-MS/MS analysis relative to untreated control
Data set [37] concerns the target Serine/threonine-protein kinase greatwall (Homo sapiens) (UniProt Q96GX5). As to conditions: A549, Lysate.
Description: Binding affinity to MASTL in human A549 cells lysates grown on SILAC media at 10 uM incubated for 1 hr by LC-MS/MS analysis relative to untreated control
The target of data set [38] is Aldo-keto reductase family 1 member C2 (Homo sapiens) (UniProt P52895). Particulars: A549, Lysate.
Description: Binding affinity to AKR1C2 in human A549 cells lysates grown on SILAC media at 10 uM incubated for 1 hr by LC-MS/MS analysis relative to untreated control
The target of data set [39] is Aldehyde dehydrogenase 1A1 (Homo sapiens) (UniProt P00352). As to conditions: A549, Lysate.
Description: Binding affinity to ALDH1A1 in human A549 cells lysates grown on SILAC media at 10 uM incubated for 1 hr by LC-MS/MS analysis relative to untreated control
The target in data set [40] is Keratin, type II cuticular Hb1 (Homo sapiens) (UniProt Q14533). As to conditions: A549, Lysate, pooled result: one value given for 5 cell lines, strains, targets or settings.
Description: Binding affinity to KRT81 in human A549 cells lysates grown on SILAC media at 10 uM incubated for 1 hr by LC-MS/MS analysis relative to untreated control
Data set [41] addresses Polyubiquitin-B (Homo sapiens) (UniProt P0CG47). Particulars: A549, Lysate, pooled result: one value given for 5 cell lines, strains, targets or settings.
Description: Binding affinity to UBB in human A549 cells lysates grown on SILAC media at 10 uM incubated for 1 hr by LC-MS/MS analysis relative to untreated control
Data set [42] has as its target Glutamate--cysteine ligase regulatory subunit (Homo sapiens) (UniProt P48507). Particulars: A549, Lysate.
Description: Binding affinity to GCLM in human A549 cells lysates grown on SILAC media at 10 uM incubated for 1 hr by LC-MS/MS analysis relative to untreated control
Data set [43] concerns the target Heterogeneous nuclear ribonucleoprotein F (Homo sapiens) (UniProt P52597). Particulars: A549, Lysate.
Description: Binding affinity to HNRNPF in human A549 cells lysates grown on SILAC media at 10 uM incubated for 1 hr by LC-MS/MS analysis relative to untreated control
Data set [44] concerns the target MKI67 FHA domain-interacting nucleolar phosphoprotein (Homo sapiens) (UniProt Q9BYG3). As to conditions: A549, Lysate.
Description: Binding affinity to MKI67 in human A549 cells lysates grown on SILAC media at 10 uM incubated for 1 hr by LC-MS/MS analysis relative to untreated control

Cytochrome b5 type B (Homo sapiens), sequence (O43169 whole entry): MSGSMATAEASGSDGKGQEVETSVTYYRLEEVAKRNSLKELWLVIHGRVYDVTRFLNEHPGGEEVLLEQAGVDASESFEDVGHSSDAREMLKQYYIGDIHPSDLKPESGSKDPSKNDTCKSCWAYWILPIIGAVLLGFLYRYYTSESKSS
Non-selective voltage-gated ion channel VDAC3 (Homo sapiens), sequence (Q9Y277 whole entry): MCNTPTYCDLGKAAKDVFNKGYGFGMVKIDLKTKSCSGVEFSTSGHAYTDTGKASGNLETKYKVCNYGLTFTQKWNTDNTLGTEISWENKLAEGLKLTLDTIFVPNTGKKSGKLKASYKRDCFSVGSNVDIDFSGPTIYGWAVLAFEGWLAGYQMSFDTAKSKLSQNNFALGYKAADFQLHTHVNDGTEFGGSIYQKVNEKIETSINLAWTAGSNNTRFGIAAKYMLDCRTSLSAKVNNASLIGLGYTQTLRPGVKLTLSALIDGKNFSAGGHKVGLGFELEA

Regarding `C#CCO/N=C1/C=C[C@]2(C)[C@H]3CC[C@]4(C)[C@@H]([C@@](C)(O)[C@H]5CC(C)=C(C)C(=O)O5)CC[C@H]4[C@@H]3[C@@H]3O[C@@H]3[C@@]2(O)C1`, the Activity in the data set on SH-SY5Y [1] was found to be 55%.

Turning to `CC#C[C@]1(O)CC[C@H]2[C@@H]3CCC4=CC(=O)CCC4=C3[C@@H](c3ccc(N(C)C)cc3)C[C@@]21C` [MIFEPRISTONE], the Activity with SH-SY5Y [1] is reported as 50%.

Consider `C[C@@H]1C[C@H]2[C@@H]3CCC4=CC(=O)C=C[C@]4(C)[C@@]3(F)[C@@H](O)C[C@]2(C)[C@@]1(O)C(=O)CO` [DEXAMETHASONE], for which the Activity in the data set with SH-SY5Y [1] is reported as 16%.

`C#CCOC(=O)/C(C)=C(C)\C=C\[C@](C)(O)[C@H]1CC[C@H]2[C@@H]3[C@@H]4O[C@@H]4[C@@]4(O)CC=CC(=O)[C@]4(C)[C@H]3CC[C@@]21C`: the log2FC is 1.16 in [2]; 1.27 in data set [3]; 1.38 in data set [4]; 1.96 in data set [5]; 1.63 in data set [6]; 3.01 in data set [7]. Moreover, the log2FC in data set [8] stood at 3.52; in [9], 1.86; in data set [10], 8.71; in data set [11] it was 2.16; in data set [12] it was 1.08; in [13], 4.11. Moreover, the log2FC was 7.1 in data set [14]; 1.18 in [15]; 3.3 in data set [16]; 1.41 in data set [19]; 2.34 in data set [20]; 2.99 in data set [21]. Also, the log2FC in [22] turned out to be 2.08; in [23], 3.09; in [24], 3.99; in [25], 1.62; in [26], 1.875; in data set [28], 2.25. The Activity is recorded as 40% with SH-SY5Y [17], “Active” in data set [18], 40% with SH-SY5Y [1] and 38% in the data set on SH-SY5Y [27].

On to `C#CCO/N=C1\C=CC[C@]2(O)[C@H]3O[C@H]3[C@H]3[C@@H]4CC[C@H]([C@@](C)(O)[C@H]5CC(C)=C(C)C(=O)O5)[C@@]4(C)CC[C@@H]3[C@@]12C`, for which the log2FC in [8] was 2.25; in data set [10], 3.73; in data set [29], 7.33; in data set [13], 1.16; in [30], 2.27; in [31], 0.964. For the same molecule, the Activity with SH-SY5Y [17] was 33%; in [18], “Active”; in the data set with SH-SY5Y [1] it was 58%; in the data set on SH-SY5Y [27] it was 37%.

For `C#CCOC(=O)/C(C)=C(C)\C=C\[C@](C)(O)[C@H]1CC[C@H]2[C@@H]3[C@@H]4O[C@@H]4C4=CC=CC(=O)[C@]4(C)[C@H]3CC[C@@]21C`, the log2FC in data set [32] was determined as 3.04; in [4], 2.11; in [33] it was 2.14; in [5], 2.03; in data set [7], 4.38; in [11], 2.05. Further, the log2FC was 1.74 in [34]; 2.46 in data set [35]; 4.61 in [29]; 2.45 in data set [36]; 1.28 in data set [37]; 1.02 in [38]. For the same molecule, the log2FC in data set [39] is 1.25; in data set [15], 2.96; in data set [40] it was 3.66; in [16] it was 4.85; in [41] it was 1.47; in [42], 2.81. In addition, the log2FC in data set [43] turned out to be 1.88; in data set [44], 1.89; in data set [21] it was 1.79. For the same molecule, the Activity in the data set with SH-SY5Y [17] is listed as 44%; with SH-SY5Y [1], 41%; with SH-SY5Y [27], 40%.

Regarding `C#CCO/N=C1/CC[C@]2(C)[C@H]3CC[C@]4(C)[C@@H]([C@@](C)(O)[C@H]5CC(C)=C(C)C(=O)O5)CC[C@H]4[C@@H]3[C@@H]3O[C@@H]3[C@@]2(O)C1`, the Activity with SH-SY5Y [1] was 50%.

With `CC1=C(/C=C/C(C)=C/C=C/C(C)=C/C(=O)O)C(C)(C)CCC1` [TRETINOIN], the Activity in the data set on SH-SY5Y [1] is given as 45%.

In the case of `C#CCO/N=C1\CCC[C@]2(O)[C@H]3O[C@H]3[C@H]3[C@@H]4CC[C@H]([C@@](C)(O)[C@H]5CC(C)=C(C)C(=O)O5)[C@@]4(C)CC[C@@H]3[C@@]12C`, in the data set on SH-SY5Y [1], the Activity is on record as 48%.

`CC1=C(C)C(=O)O[C@@H]([C@](C)(O)[C@H]2CC[C@H]3[C@@H]4[C@@H]5O[C@@H]5[C@@]5(O)CC=CC(=O)[C@]5(C)[C@H]4CC[C@]23C)C1` [WITHANOLIDE A]: the Activity with SH-SY5Y [17] was 47%; with SH-SY5Y [1], 46%; in the data set on SH-SY5Y [27] it was 46%.
